Data from patent US20260374739A1, “SMALL MOLECULAR WEIGHT CHEMICAL COMPOUND TO ANTAGONIZE EPH-EPHRIN TETRAMERIZATION AND INHIBIT BIDIRECTIONAL SIGNALING” (THE BOARD OF REGENTS OF THE UNIVERSITY OF TEXAS SYSTEM, priority 2022, published 2026).

How the values were obtained:
EphrinB1-EphB1 = biological target: T1, EphrinB1-EphB1 (Homo sapiens, UniProt P54762); assay: Octet, immobilized human EphrinB1 binding to human EphB1
T1 sequence (P54762 18-540 limits assumed): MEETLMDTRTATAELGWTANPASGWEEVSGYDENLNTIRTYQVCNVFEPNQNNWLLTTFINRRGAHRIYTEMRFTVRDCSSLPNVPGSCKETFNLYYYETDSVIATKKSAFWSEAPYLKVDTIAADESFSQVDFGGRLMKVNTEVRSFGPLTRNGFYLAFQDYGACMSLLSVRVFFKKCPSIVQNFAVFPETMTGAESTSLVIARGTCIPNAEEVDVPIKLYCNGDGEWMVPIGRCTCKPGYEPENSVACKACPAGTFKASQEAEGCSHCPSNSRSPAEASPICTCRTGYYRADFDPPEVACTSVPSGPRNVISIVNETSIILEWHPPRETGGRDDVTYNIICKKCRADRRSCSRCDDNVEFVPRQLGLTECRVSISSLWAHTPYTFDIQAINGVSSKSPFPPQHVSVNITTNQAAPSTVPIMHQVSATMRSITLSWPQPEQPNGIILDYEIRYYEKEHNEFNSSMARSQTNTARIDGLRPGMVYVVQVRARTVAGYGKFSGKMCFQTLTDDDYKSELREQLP
Description: (§1) Studies were conducted to confirm that A20 chemicals can effectively target the human Eph/Ephrin proteins. Octet system was used to first characterize the biophysical interactions of the human B class Eph and Ephrin proteins, and then was tested to assess how A20 may disrupt the interactions. Since the human and rodent proteins are highly conserved, and essentially identical, with EphB2 sharing 99.5% identity between human and mouse, with only 5 of ~1,000 amino acids different, any species-specific differences were not anticipated. Therefore, commercially available human EphrinB1-Fc (EB1), EphrinB2-Fc (EB2), and EphrinB3-Fc (EB3) ectodomain proteins were sparsely immobilized onto biosensors and then exposed to 50 nM of soluble human EphB1-His, EphB2-His, and EphB4-His ectodomains for 800 sec association and 1,000 sec dissociation steps with a total of nine different interactions analyzed. In the absence of A20 chemical, the immobilized human EphrinB proteins bound to their appropriate human EphB target proteins; with EphrinB1 only bound EphB1 and EphB2, EphrinB2 bound all three EphB1, EphB2, and EphB4, and EphrinB3 only bound EphB1 and EphB2 (FIG. 19A-19B).
Addition of compound also altered dissociation kinetics. […] This is referred to as the “unsurmountable” component of the Eph-Ephrin interaction (FIG. 21C). Additionally, AUC data was graphed for these runs (FIG. 21D). […] For EB2-EphB4, the dimer:tetramer ratio was 83:8 in the presence of A20 and was not much different from the no compound control run because it is already a strong dimer-driven interaction. […] A similar though more muted effect of A20 on tetramer accumulation was also observed for the other interactions of immobilized human EphrinB binding to soluble human EphB1 and EphB2 ectodomains (FIG. 22). The inhibitory effect of A20 is strongest on the EB2-EphB2 interaction with absolute IC50 reaching 1 μM, followed by the EB2-EphB1 interaction with absolute IC50-10 μM. […]

EphrinB2-EphB4 = biological target: T2, EphrinB2-EphB4 (Homo sapiens, UniProt P54760); assay: Octet, immobilized human EphrinB2 binding to 50 nM soluble human EphB4
T2 construct: soluble human EphB1-His, EphB2-His, and EphB4-His ectodomains; commercially available human EphrinB1-Fc (EB1), EphrinB2-Fc (EB2), and EphrinB3-Fc (EB3) ectodomain proteins; purchased
T2 sequence (P54760 16-539 limits assumed): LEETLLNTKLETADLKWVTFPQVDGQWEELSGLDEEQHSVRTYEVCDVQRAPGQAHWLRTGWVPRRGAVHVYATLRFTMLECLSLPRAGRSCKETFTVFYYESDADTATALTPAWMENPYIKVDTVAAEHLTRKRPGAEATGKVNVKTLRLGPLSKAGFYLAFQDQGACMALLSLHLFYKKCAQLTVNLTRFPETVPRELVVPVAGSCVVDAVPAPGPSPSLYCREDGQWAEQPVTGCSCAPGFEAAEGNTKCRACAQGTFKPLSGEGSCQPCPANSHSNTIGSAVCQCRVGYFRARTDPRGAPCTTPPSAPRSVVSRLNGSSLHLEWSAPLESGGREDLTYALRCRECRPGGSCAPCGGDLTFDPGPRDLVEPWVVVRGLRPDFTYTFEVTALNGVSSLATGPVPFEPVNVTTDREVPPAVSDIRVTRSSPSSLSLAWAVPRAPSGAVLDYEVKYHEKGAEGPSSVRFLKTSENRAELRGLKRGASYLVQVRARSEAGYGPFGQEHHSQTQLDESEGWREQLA
Description: as §1, with “19A-19B). […]” for “19A-19B).”

SMILES: Oc1c(Br)cc(CN2CCOCC2)c2cccnc12 [Compound 5, 7-bromo-5-(morpholinomethyl)quinolin-8-ol]
- reduction of tetramer formation (EphrinB1-EphB1; EB1-EphB1, A20): 15%
- antagonism of EphrinB1/EphrinB3 binding (EphrinB1-EphB1; EphB1/EphB2 with EB1 and EB3, species not given): can also antagonize EphB1/EphB2 proteins from binding to EphrinB1 (EB1) and EphrinB3 (EB3) proteins
- IC (maximum) (EphrinB1-EphB1; read-out: concentration producing maximum inhibition): 1 µM
- absolute IC50 (EphrinB2-EphB4; A20 salt up to 100 μM): absence of an absolute IC50
- association slope (EphrinB2-EphB4; in presence of A20, role: inhibitor, 5° without): 3 °
